From US11014934B2, “Antiseptic drug” (AO “TATKHIMFARMPREPARATY”, priority 2017, dated 2021) come the findings set out here.

Usually MIC stands for the lowest concentration that inhibits growth of the organism.

Holding throughout (assay): MIC, serial dilutions in Müller-Hinton broth
What all share (type): cell-based

The subject of one assay is E. faecium 28. The protocol: (§1) A comparative assessment of the spectrum of antibacterial action was carried out on archival and clinical strains of gram-positive and gram-negative microorganisms in accordance with the [Opredeleniye chuvstvitel'nosti mikroorganizmov k antibakterial'nym preparatam (Metodicheskiye ukazaniya MUK 4.2.1890-04). Utverzhdeny i vvedeny v deystviye Glavnym gosudarstvennym sanitarnym vrachom Rossiyskoy Federatsii G. G. Onishchenko 04.03.2004 g. Determination of the sensitivity of microorganisms to antibacterial drugs (Guidelines MUK 4.2.1890-04). Approved and put into effect by the Chief State Sanitary Doctor of the Russian Federation G. G. Onishchenko on 4 Mar. 2004].
(§2) The value of the minimum inhibitory concentration (MIC) was determined by the method of serial dilutions on Müller-Hinton broth using 96-well sterile plates. Two-fold dilutions of the test substances in a nutrient medium were prepared. The final concentrations were 1-128 ug/ml. The growth of cultures was assessed visually, comparing the growth of microorganisms in the presence of test compounds with the growth of culture without them. […] The first lowest concentration of the studied substance (from a series of consecutive dilutions), where bacterial growth is not visually determined, is considered to be the minimum inhibitory concentration (MIC). MIC was determined by the method of serial dilutions in broth with increment=2, so the differences of neighboring dilutions are not considered to be significant. In each experience there is a positive (broth with growing culture) and a negative (broth without growing culture) control.
(§3) To determine the MIC, 10 μl of culture medium was taken from those wells in which growth was not observed, and inoculation was performed on a dense Müller-Hinton broth. For the preparation of the inoculum, a pure, daily culture of gram-positive and gram-negative microorganisms grown on a dense nutrient medium was used. Nutrient medium is Müller-Hinton broth, which was prepared from dry media (Müller-Hinton broth, Acumedia, Baltimore), cultivation was carried out on agarized Müller-Hinton broth, including an additional 2% agar. The media were autoclaved at 121° C. for 15 minutes. In a sterile isotonic solution of sodium chloride, a suspension of microorganisms was prepared, adjusting the inoculum density to 0.5 according to the McFarland standard (1.5·10^8 CFU/ml). Then, the resulting inoculum was diluted to a concentration of 10^7 CFU/ml with Müller-Hinton broth. The inoculum was used within 15 minutes after preparation; the purity of the bacterial strains was monitored before each experiment.
(§4) 100 μl of Müller-Hinton broth was added to the wells of each plate; The tested substance was introduced into the first well at a concentration of 128 μg/ml in a volume of 100 μl and its concentration was adjusted to 0.5 μg/ml by consecutive two-fold dilution. Then, the prepared inoculum (100 μI) was added to each well, thereby diluting twice the concentration of the studied compounds. […] In addition, the purity of nutrient media and solvents was monitored. The plates were incubated in a thermostat at 37° C. for 24 hours. The growth of cultures was assessed visually, comparing the growth of microorganisms in the presence of test compounds with the growth of culture without them.
(§5) For the MIC was taken the minimum concentration of the studied compounds, providing complete suppression of the visible growth of the studied strains of microorganisms. The maximum value obtained in three independent experiments was taken as the MIC of the compound.

For a further assay, the system named is E. faecium 3030. The protocol: as §1, §2, §3, §4, §5
A further assay relates to Moraxella sp.829. The procedure:
as §1, §2, §3, §4, §5

Another assay deals with S. marcescens. The protocol: as §1, §2, §3, §4, §5
A further assay relates to S. aureus 19. The protocol:
as §1, §2, §3, §4, §5

In a further assay the test system is Klebsiella spp. 11. The protocol:
as §1, §2, §3, §4, §5

The next assay deals with S. aureus 1168 MRSA. The procedure: as §1, §2, §3, §4, §5
The subject of a further assay is S. epidermidis 15990. The procedure:
as §1, §2, §3, §4, §5

The test system of another assay is E. coli 13. The protocol:
as §1, §2, §3, §4, §5

The test system of a further assay is Moraxella sp.834. The procedure:
as §1, §2, §3, §4, §5

In another assay the test system is E. faecalis 23. The protocol:
as §1, §2, §3, §4, §5

The subject of the next assay is Kl. pneumoniae 1781. The protocol: as §1, §2, §3, §4, §5
The next assay concerns S. aureus 1053a. The procedure:
as §1, §2, §3, §4, §5

The test system of a further assay is S. aureus 1065 MRSA. The protocol:
as §1, §2, §3, §4, §5

The subject of a further assay is Kl. pneumoniae 1953 PR. The protocol:
as §1, §2, §3, §4, §5

The test system of another assay is E. faecium 3062. The protocol:
as §1, §2, §3, §4, §5

The subject of a further assay is Ps. aeruginosa 1202. The procedure: as §1, §2, §3, §4, §5
The test system of another assay is S. haemoliticus 837 MRSA. The protocol: as §1, §2, §3, §4, §5
The next assay concerns S. aureus 1130 MRSA. The protocol: as §1, §2, §3, §4, §5
The next assay has as its system Proteus spp. 17. The procedure: as §1, §2, §3, §4, §5
For another assay, the system named is E. coli CDCF-50. The protocol: as §1, §2, §3, §4, §5
The test system of another assay is S. aureus 2020 MRSA. The protocol: as §1, §2, §3, §4, §5

Read-outs that look alike come from different tables or passages of the source.

For the molecule `CCCCCCCCCCCC[N+](C)(C)Cc1cnc(C[N+](C)(C)CCCCCCCCCCCC)c2c1COC(CC)O2` (stereo not drawn) [Compound I, 5,8-(Bis(methylene (N, N-dimethyl-N-dodecylammonium))-2-ethyl-4H-[1,3]dioxino [4,5-c]pyridiniumdichloride], the MIC in the assay with E. faecium 28 (Enterococcus faecium, E. faecium 28, inoculum 10^7 CFU/ml, read-out: MIC) amounted to 0.03 µg/mL; in the assay with E. faecium 3030 (Enterococcus faecium, E. faecium 3030, inoculum 10^7 CFU/ml, read-out: MIC), 1 µg/mL; in the assay with Moraxella sp.829 (Moraxella sp.829, inoculum 10^7 CFU/ml, read-out: MIC) it was 4 µg/mL; in the assay with S. marcescens (Serratia marcescens, S. marcescens, inoculum 10^7 CFU/ml, read-out: MIC), 4 µg/mL; in the assay on S. aureus 19 (Staphylococcus aureus, S. aureus 19, inoculum 10^7 CFU/ml, read-out: MIC), 2 µg/mL; in the assay with Klebsiella spp. 11 (Klebsiella spp. 11, inoculum 10^7 CFU/ml, read-out: MIC) it was 16 µg/mL. Further, the minimum inhibitory concentration (MIC) with S. aureus 1168 MRSA (Staphylococcus aureus, S. aureus 1168 MRSA, inoculum 10^7 CFU/ml, read-out: MIC) came to 1 µg/mL; in the assay with S. epidermidis 15990 (Staphylococcus epidermidis, S. epidermidis 15990, inoculum 10^7 CFU/ml, read-out: MIC), 4 µg/mL; in the assay on E. coli 13 (Escherichia coli, E. coli 13, inoculum 10^7 CFU/ml, read-out: MIC) it was 8 µg/mL; with Moraxella sp.834 (Moraxella sp.834, inoculum 10^7 CFU/ml, read-out: MIC) it was 4 µg/mL; in the assay with E. faecalis 23 (Enterococcus faecalis, E. faecalis 23, inoculum 10^7 CFU/ml, read-out: MIC), 0.03 µg/mL; in the assay with Kl. pneumoniae 1781 (Klebsiella pneumoniae, Kl. pneumoniae 1781, inoculum 10^7 CFU/ml, read-out: MIC) it was 2 µg/mL. In addition, the minimal inhibitory concentration (MIC) came to 2 µg/mL with S. aureus 1053a (Staphylococcus aureus, S. aureus 1053a, inoculum 10^7 CFU/ml, read-out: MIC); 2 µg/mL with S. aureus 1065 MRSA (Staphylococcus aureus, S. aureus 1065 MRSA, inoculum 10^7 CFU/ml, read-out: MIC); 2 µg/mL in the assay on Kl. pneumoniae 1953 PR (Klebsiella pneumoniae, Kl. pneumoniae 1953 PR, inoculum 10^7 CFU/ml, read-out: MIC); 0.5 µg/mL with E. faecium 3062 (Enterococcus faecium, E. faecium 3062, inoculum 10^7 CFU/ml, read-out: MIC); 32 µg/mL in the assay with Ps. aeruginosa 1202 (Pseudomonas aeruginosa, Ps. aeruginosa 1202, inoculum 10^7 CFU/ml, read-out: MIC); 8 µg/mL with S. haemoliticus 837 MRSA (S. haemoliticus 837 MRSA, inoculum 10^7 CFU/ml, read-out: MIC). Besides, the MIC in the assay with S. aureus 1130 MRSA (Staphylococcus aureus, S. aureus 1130 MRSA, inoculum 10^7 CFU/ml, read-out: MIC) is 2 µg/mL; in the assay on Proteus spp. 17 (Proteus spp. 17, inoculum 10^7 CFU/ml, read-out: MIC), 64 µg/mL; in the assay with E. coli CDCF-50 (Escherichia coli, CDCF50, E. coli CDCF-50, inoculum 10^7 CFU/ml, read-out: MIC), 8 µg/mL; in the assay with S. aureus 2020 MRSA (Staphylococcus aureus, S. aureus 2020 MRSA, inoculum 10^7 CFU/ml, read-out: MIC), 4 µg/mL.

With `CCCCCCCCCCCCCC(=O)NCCC[N+](C)(C)Cc1ccccc1.O.[Cl-]` [Miramistin, benzyldimethyl [3-(myristoylamino)propyl]-ammonium chloride monohydrate], the MIC against E. faecium 28 (Enterococcus faecium, 28) came to 32 µg/mL; in the assay on E. faecium 3030 (Enterococcus faecium, 3030), 0.5 µg/mL; with Moraxella sp.829 (Moraxella, SP.829), 32 µg/mL; in the assay on S. marcescens (Serratia marcescens), 32 µg/mL; against S. aureus 19 (Staphylococcus aureus, 19) it was 16 µg/mL; against Klebsiella spp. 11 (Klebsiella, SPP.11), 64 µg/mL. In addition, the MIC came to 8 µg/mL in the assay with S. aureus 1168 MRSA (Staphylococcus aureus, MRSA); 8 µg/mL with S. epidermidis 15990 (Staphylococcus epidermidis, 15990); 32 µg/mL in the assay on E. coli 13 (Escherichia coli, 13); 32 µg/mL against Moraxella sp.834 (Moraxella, SP.834); 4 µg/mL with E. faecalis 23 (Enterococcus faecalis, 23); 64 µg/mL against Kl. pneumoniae 1781 (Klebsiella pneumoniae, 1781). The MIC in the assay with S. aureus 1053a (Staphylococcus aureus, 1053A) is 4 to 8 µg/mL; in the assay on S. aureus 1065 MRSA (Staphylococcus aureus, MRSA), 8 µg/mL; in the assay on Kl. pneumoniae 1953 PR (Klebsiella pneumoniae, 1953PR), 64 µg/mL; against E. faecium 3062 (Enterococcus faecium, 3062), 0.5 µg/mL; in the assay on Ps. aeruginosa 1202 (Pseudomonas aeruginosa, 1202) it was over 64 µg/mL; in the assay on S. haemoliticus 837 MRSA, 64 µg/mL. Besides, the minimum inhibitory concentration (MIC) with S. aureus 1130 MRSA (Staphylococcus aureus, MRSA) was 4 µg/mL; in the assay with Proteus spp. 17, over 64 µg/mL; against E. coli CDCF-50 (Escherichia coli, CDCF50) it was 64 µg/mL; against S. aureus 2020 MRSA (Staphylococcus aureus, MRSA) it was 8 µg/mL.

Turning to “alkyldimethyl(phenylmethyl) ammonium chloride [Benzalconium chloride]”, the MIC against E. faecium 28 (E. faecium 28, inoculum 10^7 CFU/ml) was under 0.5 µg/mL; against E. faecium 3030 (E. faecium 3030, inoculum 10^7 CFU/ml), 0.5 µg/mL; in the assay on Moraxella sp.829 (Moraxella sp.829, inoculum 10^7 CFU/ml), 32 µg/mL; in the assay on S. marcescens (S. marcescens, inoculum 10^7 CFU/ml) it was 2 µg/mL; in the assay on S. aureus 19 (S. aureus 19, inoculum 10^7 CFU/ml), under 0.5 µg/mL; against Klebsiella spp. 11 (Klebsiella spp. 11, inoculum 10^7 CFU/ml), 2 µg/mL. Moreover, the MIC with S. aureus 1168 MRSA (S. aureus 1168 MRSA, inoculum 10^7 CFU/ml) was 2 µg/mL; against S. epidermidis 15990 (S. epidermidis 15990, inoculum 10^7 CFU/ml) it was 1 µg/mL; with E. coli 13 (E. coli 13, inoculum 10^7 CFU/ml), 2 µg/mL; against Moraxella sp.834 (Moraxella sp.834, inoculum 10^7 CFU/ml), 2 µg/mL; in the assay with E. faecalis 23 (E. faecalis 23, inoculum 10^7 CFU/ml), under 0.5 µg/mL; in the assay on Kl. pneumoniae 1781 (Kl. pneumoniae 1781, inoculum 10^7 CFU/ml), 16 µg/mL. Also, the MIC against S. aureus 1053a (S. aureus 1053a, inoculum 10^7 CFU/ml) is 1 µg/mL; against S. aureus 1065 MRSA (S. aureus 1065 MRSA, inoculum 10^7 CFU/ml) it was 4 µg/mL; against Kl. pneumoniae 1953 PR (Kl. pneumoniae 1953 PR, inoculum 10^7 CFU/ml) it was 16 µg/mL; against E. faecium 3062 (E. faecium 3062, inoculum 10^7 CFU/ml) it was 1 µg/mL; in the assay on Ps. aeruginosa 1202 (Ps. aeruginosa 1202, inoculum 10^7 CFU/ml) it was over 64 µg/mL; against S. haemoliticus 837 MRSA (S. haemoliticus 837 MRSA, inoculum 10^7 CFU/ml), 16 µg/mL. For the same molecule, the MIC was determined as 2 µg/mL with S. aureus 1130 MRSA (S. aureus 1130 MRSA, inoculum 10^7 CFU/ml); 16 µg/mL in the assay on Proteus spp. 17 (Proteus spp. 17, inoculum 10^7 CFU/ml); 4 µg/mL in the assay on E. coli CDCF-50 (E. coli CDCF-50, inoculum 10^7 CFU/ml); 4 µg/mL against S. aureus 2020 MRSA (S. aureus 2020 MRSA, inoculum 10^7 CFU/ml).
